We go through six compounds from patent US20260158025A1, “COMPOUNDS AND COMBINATIONS THEREOF FOR TREATING NEUROLOGICAL AND PSYCHIATRIC CONDITIONS” (priority 2024, published 2026).

Entries after “also recorded” stand apart in the source; their conditions may differ. Counter-ions that a name gives are not always drawn.

Series [1] can be described thus: Pharmacokinetics of the subject combination in moderate renal impairment. The text has this: (§1) Data are GMRs and 90% CIs. References used are the matched healthy subjects for renal and hepatic impairment studies, and extensive or ultra-extensive CYP2D6 metabolizers respectively.
Series [2] can be described thus: Co-administration of the subject combination with paroxetine / strong CYP2D6 inhibitor. Particulars: subject combination plus strong CYP2D6 inhibitor. The text has this: In some embodiments, the patients are monitored for adverse reactions potentially attributable to dextromethorphan, such as somnolence and dizziness.
A short description of series [3]: Pharmacokinetics of the subject combination in CYP2D6 poor metabolizers. Particulars: steady state, hydrobromide monohydrate.
Description: Approximately 7% to 10% of Caucasians and 3% to 8% of African Americans lack the capacity to metabolize CYP2D6 substrates and are classified as poor metabolizers.
as §1

A short description of series [4]: Effect of food on pharmacokinetics of the subject combination. Format: in vivo, human. The following applies: subject combination administered with food.
The nature of series [5]: Steady state pharmacokinetics after administration of the subject combination. Particulars: for Cmax relative to the peak level of bupropion: after administration of the subject combination.
For series [6] the following is noted: clinical trials; cited from earlier work.
The conditions of series [7]: clinical trials; cited from earlier work. This is another data set of the same source.

Consider `CC(NC(C)(C)C)C(=O)c1cccc(Cl)c1.Cl` (racemic) [bupropion, (±)-1-(3-chlorophenyl)-2-[(1,1-dimethylethyl)amino]-1-propanone hydrochloride], for which, in series [1] (human, in vivo), the “increase in exposure vs matched controls with normal renal function” value is “approximately 2 fold” and the “reduction in clearance vs matched controls with normal renal function” value is listed as 50%.

Take `COc1ccc2c(c1)[C@]13CCCC[C@@H]1[C@H](C2)N(C)CC3` [dextromethorphan, morphinan, 3-methoxy-17-methyl-, (9α, 13α, 14α), hydrobromide monohydrate]: in series [2], the “plasma concentrations on concomitant use with a strong CYP2D6 inhibitor” value is “increases plasma concentrations”. Moreover, the “plasma concentrations in poor metabolizers compared with non-poor metabolizers” value in series [3] is “increases plasma concentrations; also recorded: generally higher”. In addition, in series [4], the “change of Cmax with food” value was “unchanged”. Further, the “reduction in clearance vs matched controls with normal renal function” value in series [1] (moderate renal impairment (GFR 30-60 mL/min)) is given as 50%. Besides, in series [1] (moderate renal impairment (GFR 30-60 mL/min), 7 subjects vs 6 controls), the “increase in exposure vs matched controls with normal renal function” value is “approximately 2 fold”. Further, in series [5] (8 days of the subject combination, extensive metabolizers), the “increase in mean elimination half-life compared to dextromethorphan given without bupropion” value was “approximately 3 fold”. In series [5] (co-administered with bupropion, dextromethorphan 30 to 60 mg, bupropion 75 to 150 mg), the “pharmacokinetics at steady state (dose proportionality)” value is on record as “nonlinear pharmacokinetics”.

As to `CC(NC(C)(C)C)C(O)c1cccc(Cl)c1` (stereo not drawn) [erythrohydroxybupropion], the “Cmax relative to the peak level of bupropion” value in series [5] is “approximately equal to”.

As to `CN[C@]1(c2ccccc2Cl)CCCCC1=O` [esketamine, Esketamine], in series [6], the “patients who developed sedation based on MOAA/S” value is listed as 48% to 61 and the “patients who experienced loss of consciousness (MOAA/S score of 0)” value is listed as 0.3% to 0.4. Moreover, in series [7], the “patients who developed dissociative or perceptual changes based on CADSS” value is 61% to 84.

On to `C[C@H]1NC(C)(C)CO[C@]1(O)c1cccc(Cl)c1` [hydroxybupropion], for which, in series [5], the “Cmax relative to the peak level of bupropion” value is “approximately 14 times”.

With `C[C@H](NC(C)(C)C)[C@@H](O)c1cccc(Cl)c1` [threohydroxybupropion], the “Cmax relative to the peak level of bupropion” value in series [5] is on record as “about 5 times”.
